Patent US20230265104A1, “NOVEL HETEROCYCLIC COMPOUNDS” (PRISM BIOLAB CO., LTD., priority 2020, published 2023)

Tested on: PANC-1 (human pancreatic cancer-derived cell line)
Test: MTS assay on Panc-1 (human pancreas carcinoma cell line)
Format: cell-based
Conditions: 144 h; for inhibition at 10 µM / inhibition at 1 µM / inhibition at 2.5 µM: PANC-1, MTS, 6 days; for inhibition at 10 µM: read-out: Growth inhibition (%) 10 μM; for IC50: PANC-1, MTS method, cell survival 6 days after exposure, 4-parameter logistic fit; for inhibition at 1 µM: read-out: Growth inhibition (%) 1 μM; for inhibition at 2.5 µM: read-out: Growth inhibition (%) 2.5 μM
Outline: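 PANC-1 cells in D-MEM + 10% FBS at 37 °C, 5% CO2 exposed to 2-fold serial DMSO dilutions of compound for 6 days. Survival read by MTS (492 minus 630 nm, blank-corrected) relative to DMSO control as 100%; mean of 3 runs, 4-parameter logistic fit.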

**Q.** `CC(C)C[C@H]1ON(C(=O)/C=C/c2cccc(=O)[nH]2)[C@H]2CN(C3CCN(C)CC3)C(=O)[C@H](CC(C)C)N2C1=O` [ID-51, (3R,6S,9aS)-3,6-diisobutyl-8-(1-methylpiperidin-4-yl)-1-((E)-3-(6-oxo-1,6-dihydropyridin-2-yl)acryloyl)tetrahydropyrazino[2,1-c][1,2,4]oxadiazine-4,7(3H,6H)-dione] was tested. Which inhibition at 10 µM did it give?
**A.** The inhibition at 10 µM was 47.5%.

**Q.** How did the IC50 turn out when `CC(C)C[C@H]1ON(C(=O)/C=C/c2nc3cc(F)ccc3s2)[C@H]2CN(C3CCN(C)CC3)C(=O)[C@H](CC(C)C)N2C1=O` [ID-52, (3R,6S,9aS)-1-((E)-3-(5-fluorobenzo[d]thiazol-2-yl)acryloyl)-3,6-diisobutyl-8-(1-methylpiperidin-4-yl)tetrahydropyrazino[2,1-c][1,2,4.]oxadiazine-4,7(3H,6H)-dione] was run?
**A.** Its IC50 is 480 nM.

**Q.** And the inhibition at 10 µM?
**A.** Its inhibition at 10 µM is 101%.

**Q.** With `CC(C)C[C@H]1ON(C(=O)/C=C/c2ncco2)[C@H]2CN(C3CCN(C)CC3)C(=O)[C@H](CC(C)C)N2C1=O` [ID-53, (3R,6S,9aS)-3,6-diisobutyl-8-(1-methylpiperidin-4-yl)-1-((E)-3-(oxazol-2-yl)acryloyl)tetrahydropyrazino[2,1-c] [1,2,4]oxadiazine-4,7(3H,6H)-dione] as the compound, how does the IC50 read?
**A.** The IC50 was 1200 nM.

**Q.** And the inhibition at 10 µM?
**A.** The inhibition at 10 µM was 100%.

**Q.** With `CC(C)C[C@H]1ON(C(=O)/C=C/c2cscn2)[C@H]2CN(C3CCN(C)CC3)C(=O)[C@H](CC(C)C)N2C1=O` [ID-54, (3R,6S,9aS)-3,6-diisobutyl-8-(1-methylpiperidin-4-yl)-1-((E)-3-(thiazol-4-yl)acryloyl)tetrahydropyrazino[2,1-c] [1,2,4]oxadiazine-4,7(3H,6H)-dione] as the compound, how does the inhibition at 10 µM read?
**A.** Its inhibition at 10 µM is 57%.

**Q.** `CC(C)C[C@H]1ON(C(=O)/C=C/c2ncc(Cl)cn2)[C@H]2CN(C3CCN(C)CC3)C(=O)[C@H](CC(C)C)N2C1=O` [ID-55, (3R,6S,9aS)-1-((E)-3-(5-chloropyrimidin-2-yl)acryloyl)-3,6-diisobutyl-8-(1-methylpiperidin-4-yl)tetrahydropyrazino[2,1-c][1,2,4]oxadiazine-4,7(3H,6H)-dione] was tested. Which IC50 did it give?
**A.** Its IC50 is 460 nM.

**Q.** And the inhibition at 10 µM?
**A.** Its inhibition at 10 µM is 99.8%.

**Q.** Which inhibition at 10 µM does the source give for `CC(C)C[C@H]1ON(C(=O)/C=C/c2csc(N3CCOCC3)n2)[C@H]2CN(C3CCN(C)CC3)C(=O)[C@H](CC(C)C)N2C1=O` [ID-56, (3R,6S,9aS)-3,6-diisobutyl-8-(1-methylpiperidin-4-yl)-1-((E)-3-(2-morpholinothiazol-4-yl)acryloyl)tetrahydropyrazino[2,1-c][1,2,4]oxadiazine-4,7 (3H, 6H)-dione] here?
**A.** Its inhibition at 10 µM is 95.3%.

**Q.** What does the source list for `CC(C)C[C@H]1ON(C(=O)/C=C/c2ccccn2)[C@H]2CN(C3CCN(C)CC3)C(=O)[C@H](CCCCNCc3ccccc3)N2C1=O` [ID-57, (3R,6S,9aS)-6-(4-(benzylamino)butyl)-3-isobutyl-8-(1-methylpiperidin-4-yl)-1-((E)-3-(pyridin-2-yl)acryloyl)tetrahydropyrazino[2,1-c][1,2,4]oxadiazine-4,7(3H,6H)-dione]?
**A.** IC50: 1000 nM; inhibition at 10 µM: 101%

**Q.** What does the source list for `CC(C)C[C@H]1C(=O)N(C2CCN(C)CC2)C[C@@H]2N(C(=O)/C=C/c3nc4ccccc4s3)c3ccccc3C(=O)N21` [ID-58, (4S,11aS)-11-((E)-3-(benzo[d]thiazol-2-yl)acryloyl)-4-isobutyl-2-(1-methylpiperidin-4-yl)-1,2,11,11a-tetrahydro-6H-pyrazino[2,1-b]quinazoline-3,6(4H)-dione]?
**A.** IC50: 560 nM; inhibition at 1 µM: 78.4%

**Q.** What does the source list for `CN1CCC(N2C[C@@H]3N(C(=O)/C=C/c4nc5ccccc5s4)c4ccc(F)cc4C(=O)N3[C@@H](CCCCN(C)C3CCN(C(=O)OC(C)(C)C)CC3)C2=O)CC1` [ID-59, tert-butyl 4-((4-((4S,11aS)-11-((E)-3-(benzo[d]thiazol-2-yl)acryloyl)-8-fluoro-2-(1-methylpiperidin-4-yl)-3,6-dioxo-1,3,4,6,11,11a-hexahydro-2H-pyrazino[2,1-b]quinazolin-4-yl)butyl) (methyl)amino)piperidine-1-carboxylate]?
**A.** IC50: 550 nM; inhibition at 1 µM: 98.8%

**Q.** How did the IC50 turn out when `CSCC[C@H]1C(=O)N(C2CCN(C)CC2)C[C@@H]2N(C(=O)/C=C/c3nc4ccccc4s3)O[C@H](CC(C)C)C(=O)N21` [ID-60, (3R,6S,9aS)-1-((E)-3-(benzo[d]thiazol-2-yl)acryloyl)-3-isobutyl-8-(1-methylpiperidin-4-yl)-6-(2-(methylthio)ethyl)tetrahydropyrazino[2,1-c][1,2,4]oxadiazine-4,7(3H,6H)-dione] was run?
**A.** The IC50 was 270 nM.

**Q.** What about the inhibition at 10 µM of the same compound?
**A.** Its inhibition at 10 µM is 93.7%.

**Q.** How did the IC50 turn out when `CC(C)C[C@H]1ON(C(=O)/C=C/c2ccccn2)[C@H]2CN(C3CCN(C)CC3)C(=O)[C@H](Cc3ccc(O)cc3)N2C1=O` [ID-61, (3R,6S,9aS)-6-(4-hydroxybenzyl)-3-isobutyl-8-(1-methylpiperidin-4-yl)-1-((E)-3-(pyridin-2-yl)acryloyl)tetrahydropyrazino[2,1-c][1,2,4]oxadiazine-4,7(3H,6H)-dione] was run?
**A.** Its IC50 is 7300 nM.

**Q.** `CC(C)C[C@H]1ON(C(=O)/C=C/c2ccccn2)[C@H]2CN(C3CCN(C4CCOCC4)CC3)C(=O)[C@H](CC(C)C)N2C1=O` [ID-62, (3R,6S,9aS)-3,6-diisobutyl-1-((E)-3-(pyridin-2-yl)acryloyl)-8-(1-(tetrahydro-2H-pyran-4-yl)piperidin-4-yl)tetrahydropyrazino[2,1-c][1,2,4]oxadiazine-4,7(3H,6H)-dione] was tested. Which IC50 did it give?
**A.** Its IC50 is 3400 nM.

**Q.** For `CC(C)C[C@H]1ON(C(=O)/C=C/c2ccccn2)[C@H]2CN(C3CCN(C4CCCCC4)CC3)C(=O)[C@H](CC(C)C)N2C1=O` [ID-63, (3R,6S,9aS)-8-(1-cyclohexylpiperidin-4-yl)-3,6-diisobutyl-1-((E)-3-(pyridin-2-yl)acryloyl)tetrahydropyrazino[2,1-c][1,2,4]oxadiazine-4,7(3H,6H)-dione], which IC50 is on record?
**A.** The IC50 was 1400 nM.

**Q.** Which IC50 does the source give for `CC(C)C[C@H]1ON(C(=O)/C=C/c2nc3ccccc3s2)[C@H]2CN(C3CCOCC3)C(=O)[C@H](CC(C)C)N2C1=O` [ID-64, (3R,6S,9aS)-1-((E)-3-(benzo[d]thiazol-2-yl)acryloyl)-3,6-diisobutyl-8-(tetrahydro-2H-pyran-4-yl)tetrahydropyrazino[2,1-c][1,2,4]oxadiazine-4,7(3H,6H)-dione] here?
**A.** Its IC50 is 880 nM.

**Q.** Which IC50 does the source give for `CC(C)C[C@H]1ON(C(=O)/C=C/c2ccccn2)[C@H]2CN(C3CCCN(C)C3)C(=O)[C@H](CC(C)C)N2C1=O` (stereo partly drawn) [ID-65, (3R,6S,9aS)-3,6-diisobutyl-8-(1-methylpiperidin-3-yl)-1-((E)-3-(pyridin-2-yl)acryloyl)tetrahydropyrazino[2,1-c][1,2,4]oxadiazine-4,7(3H,6H)-dione] here?
**A.** Its IC50 is 4700 nM.

**Q.** What about the inhibition at 10 µM of the same compound?
**A.** The inhibition at 10 µM was 96.5%.

**Q.** Which results are given for `CC(C)C[C@H]1ON(C(=O)/C=C/c2ccccn2)[C@H]2CN(C3CCN(C)CC3)C(=O)[C@H](Cc3ccccc3)N2C1=O` [ID-66, (3R,6S,9aS)-6-benzyl-3-isobutyl-8-(1-methylpiperidin-4-yl)-1-((E)-3-(pyridin-2-yl)acryloyl)tetrahydropyrazino[2,1-c][1,2,4]oxadiazine-4,7(3H,6H)-dione]?
**A.** IC50: 5200 nM; inhibition at 10 µM: 96.7%

**Q.** With `CC(C)C[C@H]1ON(C(=O)/C=C/c2ccccn2)[C@H]2CN(C3CCCN(C)CC3)C(=O)[C@H](CC(C)C)N2C1=O` (stereo partly drawn) [ID-67, (3R,6S,9aS)-3,6-diisobutyl-8-(1-methylazepan-4-yl)-1-((E)-3-(pyridin-2-yl)acryloyl)tetrahydropyrazino[2,1-c][1,2,4]oxadiazine-4,7(3H,6H)-dione] as the compound, how does the IC50 read?
**A.** The IC50 was 3300 nM.

**Q.** And the inhibition at 10 µM?
**A.** The inhibition at 10 µM was 100%.

**Q.** For `CC(C)C[C@H]1ON(C(=O)/C=C/c2ccccn2)[C@H]2CN(C3CCC(N)CC3)C(=O)[C@H](CC(C)C)N2C1=O` (stereo partly drawn) [ID-68, (3R,6S,9aS)-8-(4-aminocyclohexyl)-3,6-diisobutyl-1-((E)-3-(pyridin-2-yl)acryloyl)tetrahydropyrazino[2,1-c][1,2,4]oxadiazine-4,7(3H,6H)-dione], which IC50 is on record?
**A.** The IC50 was 2800 nM.

**Q.** Which IC50 does the source give for `CC(C)C[C@H]1ON(C(=O)/C=C/c2ccccn2)[C@H]2CN(C3CCC(N(C)C)CC3)C(=O)[C@H](CC(C)C)N2C1=O` (stereo partly drawn) [ID-69, (3R,6S,9aS)-8-(4-(dimethylamino)cyclohexyl)-3,6-diisobutyl-1-((E)-3-(pyridin-2-yl)acryloyl)tetrahydropyrazino[2,1-c][1,2,4]oxadiazine-4,7(3H,6H)-dione] here?
**A.** Its IC50 is 2800 nM.

**Q.** With `CC(C)C[C@H]1ON(C(=O)/C=C/c2ccccn2)[C@H]2CN(C3CC4CCC(C3)N4C)C(=O)[C@H](CC(C)C)N2C1=O` (stereo partly drawn) [ID-70, (3R,6S,9aS)-3,6-diisobutyl-8-(8-methyl-8-azabicyclo[3.2.1]octan-3-yl)-1-((E)-3-(pyridin-2-yl)acryloyl)tetrahydropyrazino[2,1-c][1,2,4]oxadiazine-4,7(3H,6H)-dione] as the compound, how does the IC50 read?
**A.** Its IC50 is 2500 nM.

**Q.** Which inhibition at 2.5 µM does the source give for `CC(C)C[C@H]1ON(C(=O)/C=C/c2ccc(C(F)(F)F)cn2)[C@H]2CN(C3CCN(C)CC3)C(=O)[C@H](CC(C)C)N2C1=O` [ID-71, (3R,6S,9aS)-3,6-diisobutyl-8-(1-methylpiperidin-4-yl)-1-((E)-3-(5-(trifluoromethyl)pyridin-2-yl)acryloyl)tetrahydropyrazino[2,1-c][1,2,4]oxadiazine-4,7(3H,6H)-dione] here?
**A.** The inhibition at 2.5 µM was 97.3%.

**Q.** With `COc1ccc(/C=C/C(=O)N2O[C@H](CC(C)C)C(=O)N3[C@@H]2CN(C2CCN(C)CC2)C(=O)[C@@H]3CC(C)C)nc1` [ID-72, (3R,6S,9aS)-3,6-diisobutyl-1-((E)-3-(5-methoxypyridin-2-yl)acryloyl)-8-(1-methylpiperidin-4-yl)tetrahydropyrazino[2,1-c][1,2,4]oxadiazine-4,7(3H,6H)-dione] as the compound, how does the inhibition at 2.5 µM read?
**A.** The inhibition at 2.5 µM was 37%.
